Laboratory results taken from patent US20160015637A1, “ANTI-ITCHING POWDER” (Lilac Laboratory Co., Ltd., priority 2014, published 2016).

Assay: itch prevention effect experiment (somesthetic testing, powder applied to the skin over the whole body)
Assay type: in vivo, examinees (male: 2, female: 1)
Details: for proportion of itch: itches without application set to 100, climbing/running 100 times, eight hours from test start; for itch removal / itch prevention effect bodily sensed: somesthetic testing, result in words
Description: Purpose of Experiment The fine powder of the aluminum chloride hexahydrate and the cyclodextrin (referred to as the CD) were each used alone for application to the skin over the whole body. From the result, whether the itch prevention effect was able to be bodily sensed or not was determined through somesthetic testing.
Participated Examinees three (male: 2, female: 1)
Testing Method Fine powder compositions of Experiment 1 to Experiment 3 were applied to the skin over the whole body. The climbing of a low mountain (altitude: 300 to 400 m) of 2 to 20 km and running of 2 to 15 km were executed 100 times appropriately for all seasons and for two years with the respective samples. Whether the itch was clearly removed or not and the appearance of the itch was able to be prevented or not were measured setting eight hours from the test start as terminal time. During the period, the somesthetic testing was conducted for determination. The total count of itches developed without application of various kinds of fine powder agents to the skin over the whole body (the head, the face, the body, and the entire feet) was set to 100. The degree of the itch was indicated by a “proportion of itch.”

| SMILES | proportion of itch [%] | itch removal / itch prevention effect bodily sensed |
| --- | --- | --- |
| OC[C@H]1O[C@@H]2O[C@H]3[C@H](O)[C@@H](O)[C@@H](O[C@H]4[C@H](O)[C@@H](O)[C@@H](O[C@H]5[C@H](O)[C@@H](O)[C@@H](O[C@H]6[C@H](O)[C@@H](O)[C@@H](O[C@H]7[C@H](O)[C@@H](O)[C@@H](O[C@H]1[C@H](O)[C@H]2O)O[C@@H]7CO)O[C@@H]6CO)O[C@@H]5CO)O[C@@H]4CO)O[C@@H]3CO [α-CD] | 100 | The itch was not removed |
| OC[C@H]1O[C@@H]2O[C@H]3[C@H](O)[C@@H](O)[C@@H](O[C@H]4[C@H](O)[C@@H](O)[C@@H](O[C@H]5[C@H](O)[C@@H](O)[C@@H](O[C@H]6[C@H](O)[C@@H](O)[C@@H](O[C@H]7[C@H](O)[C@@H](O)[C@@H](O[C@H]8[C@H](O)[C@@H](O)[C@@H](O[C@H]1[C@H](O)[C@H]2O)O[C@@H]8CO)O[C@@H]7CO)O[C@@H]6CO)O[C@@H]5CO)O[C@@H]4CO)O[C@@H]3CO [β-CD] | 100 | the itch prevention effect was not able to be bodily sensed |
| OC[C@H]1O[C@@H]2O[C@H]3[C@H](O)[C@@H](O)[C@@H](O[C@H]4[C@H](O)[C@@H](O)[C@@H](O[C@H]5[C@H](O)[C@@H](O)[C@@H](O[C@H]6[C@H](O)[C@@H](O)[C@@H](O[C@H]7[C@H](O)[C@@H](O)[C@@H](O[C@H]8[C@H](O)[C@@H](O)[C@@H](O[C@H]9[C@H](O)[C@@H](O)[C@@H](O[C@H]1[C@H](O)[C@H]2O)O[C@@H]9CO)O[C@@H]8CO)O[C@@H]7CO)O[C@@H]6CO)O[C@@H]5CO)O[C@@H]4CO)O[C@@H]3CO [γ-CD] | 100 | the itch prevention effect was not able to be bodily sensed |
